Data taken from ChEMBL document CHEMBL1828558, “Discovery of (+)-N-(3-aminopropyl)-N-[1-(5-benzyl-3-methyl-4-oxo-[1,2]thiazolo[5,4-d]pyrimidin-6-yl)-2-methylpropyl]-4-methylbenzamide (AZD4877), a kinesin spindle protein inhibitor and potential anticancer agent” (J Med Chem, 2011).

Key:
[1] = tested on: COLO 205; test: Anticancer activity against human COLO205 cells after 72 hrs by MTS/PMS assay; format: functional, cell-based; settings: Homo sapiens, COLO 205, 72 h
[2] = target: T1, Kinesin-like protein KIF11 (Homo sapiens, UniProt P52732); test: Inhibition of human recombinant C-terminal His6-tagged KSP ATPase activity after 1 hr by malachite green assay
T1 sequence (P52732 whole entry): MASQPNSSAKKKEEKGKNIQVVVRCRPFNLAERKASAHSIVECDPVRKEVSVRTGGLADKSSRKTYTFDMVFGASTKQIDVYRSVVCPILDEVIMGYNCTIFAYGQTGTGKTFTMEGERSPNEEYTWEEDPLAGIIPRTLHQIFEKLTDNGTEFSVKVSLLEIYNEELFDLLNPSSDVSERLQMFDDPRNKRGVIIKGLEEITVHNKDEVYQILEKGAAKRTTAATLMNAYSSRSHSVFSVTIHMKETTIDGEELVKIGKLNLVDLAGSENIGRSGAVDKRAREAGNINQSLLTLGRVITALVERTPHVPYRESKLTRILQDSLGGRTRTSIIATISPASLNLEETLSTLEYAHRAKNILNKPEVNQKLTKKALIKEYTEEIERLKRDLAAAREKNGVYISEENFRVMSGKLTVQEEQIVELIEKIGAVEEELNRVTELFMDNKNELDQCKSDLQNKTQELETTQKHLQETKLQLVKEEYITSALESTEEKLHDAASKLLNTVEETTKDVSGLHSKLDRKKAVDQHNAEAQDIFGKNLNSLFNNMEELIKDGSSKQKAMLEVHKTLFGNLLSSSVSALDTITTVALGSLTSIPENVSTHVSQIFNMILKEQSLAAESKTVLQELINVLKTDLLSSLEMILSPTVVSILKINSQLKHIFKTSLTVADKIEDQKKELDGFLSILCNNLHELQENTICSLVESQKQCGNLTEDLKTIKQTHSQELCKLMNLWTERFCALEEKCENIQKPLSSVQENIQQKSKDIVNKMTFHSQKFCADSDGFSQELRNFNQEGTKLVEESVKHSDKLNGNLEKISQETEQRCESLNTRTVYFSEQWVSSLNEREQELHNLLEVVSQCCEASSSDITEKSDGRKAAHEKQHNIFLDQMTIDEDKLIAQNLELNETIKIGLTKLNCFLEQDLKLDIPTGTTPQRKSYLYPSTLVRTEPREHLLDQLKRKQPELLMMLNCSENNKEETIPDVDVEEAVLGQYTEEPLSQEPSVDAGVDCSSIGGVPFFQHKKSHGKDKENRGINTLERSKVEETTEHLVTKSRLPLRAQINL

Compound	IC50 [1]	IC50 [2]
CCC(c1nc2ccsc2c(=O)n1Cc1ccccc1)N(CCCN)C(=O)c1ccccc1 (stereo not given)	680 nM	200 nM
CCC(c1nc2ccsc2c(=O)n1Cc1ccc(Cl)cc1)N(CCCN)C(=O)c1ccc(C)cc1 (stereo not given)	1560 nM	210 nM
CCC(c1nc2ccsc2c(=O)n1Cc1ccccc1)N(C(=O)c1ccc(C)cc1)C1CCNCC1 (stereo not given)	1290 nM	1070 nM
CCC(c1nc2snc(C)c2c(=O)n1Cc1ccccc1)N(CCCN)C(=O)c1ccc(Br)cc1 (stereo not given)	14 nM	–
CCC(c1nc2ccsc2c(=O)n1Cc1ccncc1)N(CCCN)C(=O)c1ccc(C)cc1 (stereo not given)	–	5310 nM
CCC(c1nc2ccsc2c(=O)n1Cc1ccccc1)N(CCCN)C(=O)c1ccc2ccccc2c1 (stereo not given)	200 nM	30 nM
CCC(c1nc2ccsc2c(=O)n1Cc1ccccn1)N(CCCN)C(=O)c1ccc(C)cc1 (stereo not given)	–	3500 nM
CCc1ccc(C(=O)N(CCCN)C(CC)c2nc3ccsc3c(=O)n2Cc2ccccc2)cc1 (stereo not given)	250 nM	90 nM
CCC(c1nc2ccoc2c(=O)n1Cc1ccccc1)N(CCCN)C(=O)c1ccc(C)cc1 (stereo not given)	174 nM	13 nM
CCC(c1nc2snc(C)c2c(=O)n1Cc1ccc(F)cc1)N(CCCN)C(=O)c1ccc(C)cc1 (stereo not given)	105 nM	–
CCC(c1nc2c(C)nsc2c(=O)n1Cc1ccccc1)N(CCCN)C(=O)c1ccc(C)cc1 (stereo not given)	45 nM	5 nM
CCC(c1nc2ccsc2c(=O)n1Cc1ccccc1)N(CCCN)C(=O)c1ccc(Br)cc1 (stereo not given)	160 nM	30 nM
CCC(c1nc2ccsc2c(=O)n1Cc1ccccc1)N(CC1CNCCO1)C(=O)c1ccc(C)cc1 (stereo not given)	720 nM	310 nM
CCC(c1nc2ccsc2c(=O)n1Cc1ccccc1)N(CCCNC(=O)OC(C)(C)C)C(=O)c1ccc(C)cc1 (stereo not given)	–	10000 nM
CCCCC(=O)N(CCCN)C(CC)c1nc2ccsc2c(=O)n1Cc1ccccc1 (stereo not given)	–	5520 nM
CCC(NC(=O)c1ccc(C)cc1)c1nc2ccsc2c(=O)n1Cc1ccccc1 (stereo not given)	–	9000 nM
CCC(c1nc2ccsc2c(=O)n1Cc1ccccc1)N(CCCN)C(=O)c1ccc(F)cc1 (stereo not given)	570 nM	140 nM
CCC(c1nc2ccsc2c(=O)n1Cc1ccccc1)N(CCCN)C(=O)c1sccc1C (stereo not given)	–	410 nM
CCC(c1nc2ccsc2c(=O)n1Cc1cc(C)on1)N(CCCN)C(=O)c1ccc(C)cc1 (stereo not given)	1710 nM	630 nM
CCC(c1nc2ccsc2c(=O)n1Cc1ccccc1)N(CCCNC(C)=O)C(=O)c1ccc(C)cc1 (stereo not given)	–	2920 nM
CCC(c1nc2ccsc2c(=O)n1Cc1ccccc1)N(CCCN)C(=O)c1ccc(C(=O)OC)cc1 (stereo not given)	–	5960 nM
CCC(c1nc2ccsc2c(=O)n1Cc1ccccc1)N(CCCN)C(=O)C1CC1 (stereo not given)	–	6700 nM
CCC(c1nc2ccsc2c(=O)n1Cc1ccccc1)N(CCCNS(C)(=O)=O)C(=O)c1ccc(C)cc1 (stereo not given)	–	5990 nM

Compound	IC50 [1]	IC50 [2]
Cc1ccc(C(=O)N(CCCN)C(c2nc3snc(C)c3c(=O)n2Cc2ccccc2)C(C)C)cc1F (single isomer, unassigned; (+))	10 nM	–
CCC(c1nc2sccc2c(=O)n1Cc1ccccc1)N(CCCN)C(=O)c1ccc(C)cc1 (single isomer, unassigned; (-))	–	1900 nM
CCC(c1nc2ccsc2c(=O)n1Cc1ccccc1)N(CCCN)C(=O)C1CCC(OC)CC1 (stereo not given)	–	9000 nM
CCC(c1nc2ccsc2c(=O)n1Cc1ccccc1)N(CCCN)C(=O)c1ccc(C(F)(F)F)cc1 (stereo not given)	510 nM	210 nM
CCC(c1nc2ccsc2c(=O)n1Cc1ccccc1)N(CCCN)C(=O)c1ccno1 (stereo not given)	–	1390 nM
CCC(c1nc2ccsc2c(=O)n1Cc1ccccc1)N(CCCN)C(=O)c1ccc(OC)cc1 (stereo not given)	640 nM	210 nM
CCC(c1nc2snc(C)c2c(=O)n1Cc1cccc(F)c1)N(CCCN)C(=O)c1ccc(C)cc1 (single isomer, unassigned; (+))	13 nM	–
CCC(c1nc2ccsc2c(=O)n1Cc1ccccc1F)N(CCCN)C(=O)c1ccc(C)cc1 (stereo not given)	1360 nM	140 nM
CCC(c1nc2ccsc2c(=O)n1Cc1ccccc1)N(CCCN)C(=O)c1ccccc1C (stereo not given)	–	1060 nM
CCC(c1nc2ccsc2c(=O)n1Cc1ccccc1)N(CCCN)C(=O)CC(C)C (stereo not given)	–	4540 nM
CCC(c1nc2ccsc2c(=O)n1Cc1ccccc1)N(CCCN)C(=O)c1cccc(C(F)(F)F)c1 (stereo not given)	580 nM	310 nM
Cc1ccc(C(=O)N(CCCN)C(c2nc3snc(C)c3c(=O)n2Cc2cccc(F)c2)C(C)C)cc1 (single isomer, unassigned; (+))	5 nM	–
CCC(c1nc2ccsc2c(=O)n1Cc1ccccc1)N(CCCN)C(=O)c1ccc(C)cc1 (stereo not given)	100 nM	10 nM
CCC(c1nc2sc(Cl)c(Br)c2c(=O)n1Cc1ccccc1)N(CCCN)C(=O)c1ccc(C)cc1 (stereo not given)	675 nM	161 nM
CCC(c1nc2ccsc2c(=O)n1Cc1ccccc1)N(CCCN)C(=O)c1ccc2nccnc2c1 (stereo not given)	–	3210 nM
CCC(c1nc2ccsc2c(=O)n1Cc1ccccc1)N(CCCN)C(=O)C1COc2ccccc2O1 (stereo not given)	–	2310 nM
CCC(c1nc2ccsc2c(=O)n1Cc1ccccc1)N(CCCN)C(=O)c1ccc(Cl)cc1Cl (stereo not given)	310 nM	150 nM
CCC(c1nc2nccnc2c(=O)n1Cc1ccccc1)N(CCCN)C(=O)c1ccc(C)cc1 (stereo not given)	–	5460 nM
CCC(c1nc2snc(C)c2c(=O)n1Cc1ccccc1)N(CCCN)C(=O)c1ccc(C)cc1 (single isomer, unassigned; (-))	–	51 nM
Cc1nsc2nc(C(C(C)C)N(CCCN)C(=O)c3ccc(Br)cc3)n(Cc3ccccc3)c(=O)c12 (stereo not given)	6 nM	–
CCC(c1nc2ccsc2c(=O)n1Cc1ccc(OC)cc1)N(CCCN)C(=O)c1ccc(C)cc1 (stereo not given)	790 nM	160 nM
CCC(c1nc2ccsc2c(=O)n1Cc1cccc(F)c1)N(CCCN)C(=O)c1ccc(C)cc1 (stereo not given)	330 nM	20 nM
CCC(c1nc2ccsc2c(=O)n1Cc1ccccc1)N(CCCN)C(=O)c1ccc(C)nc1 (stereo not given)	3690 nM	980 nM

Compound	IC50 [1]	IC50 [2]
CCC(c1nc2ncccc2c(=O)n1Cc1ccccc1)N(CCCN)C(=O)c1ccc(C)cc1 (stereo not given)	1400 nM	323 nM
CCC(c1nc2ccsc2c(=O)n1Cc1ccccc1)N(CCCN)C(=O)c1ccco1 (stereo not given)	1550 nM	500 nM
CCC(c1nc2ccsc2c(=O)n1Cc1ccccc1)N(CCCN)C(=O)c1cccc(C)c1 (stereo not given)	140 nM	90 nM
CCC(c1nc2ccsc2c(=O)n1Cc1ccccc1)N(CC1CCNCC1)C(=O)c1ccc(C)cc1 (stereo not given)	10000 nM	1440 nM
CCC(c1nc2ccsc2c(=O)n1Cc1cccnc1)N(CCCN)C(=O)c1ccc(C)cc1 (stereo not given)	–	3800 nM
CCC(c1nc2snc(C)c2c(=O)n1Cc1ccccc1)N(CCCN)C(=O)c1ccc(C)c(F)c1 (stereo not given)	12 nM	–
CCC(c1nc2ccsc2c(=O)n1Cc1ccccc1)N(CCCN)C(=O)c1ccc(OC(F)(F)F)cc1 (stereo not given)	–	2460 nM
CCC(c1nc2ccsc2c(=O)n1Cc1ccccc1)N(CCCN)C(=O)C1CCCC1 (stereo not given)	–	4220 nM
CCC(c1nc2sc(Cl)cc2c(=O)n1Cc1ccccc1)N(CCCN)C(=O)c1ccc(C)cc1 (stereo not given)	464 nM	85 nM
CCC(c1nc2ccsc2c(=O)n1Cc1ccc(C)cc1)N(CCCN)C(=O)c1ccc(C)cc1 (stereo not given)	650 nM	130 nM
CCC(c1nc2ccsc2c(=O)n1Cc1ccccc1)N(CCCCN)C(=O)c1ccc(C)cc1 (stereo not given)	980 nM	390 nM
CCC(c1nc2ccsc2c(=O)n1Cc1ccccc1)N(CCCN)C(=O)c1ccc2c(c1)OCO2 (stereo not given)	260 nM	150 nM
CCC(c1nc2ccn(C)c2c(=O)n1Cc1ccccc1)N(CCCN)C(=O)c1ccc(C)cc1 (stereo not given)	43 nM	21 nM
Cc1ccc(C(=O)N(CCCN)C(c2nc3snc(C)c3c(=O)n2Cc2ccccc2)C(C)C)cc1 (stereo in doubt; 65) [AZD-4877]	2 nM	–
CCC(c1nc2ccsc2c(=O)n1Cc1ccccc1)N(CCCN)C(=O)c1ccccc1Cl (stereo not given)	860 nM	610 nM
CCC(c1nc2sc(Br)cc2c(=O)n1Cc1ccccc1)N(CCCN)C(=O)c1ccc(C)cc1 (stereo not given)	763 nM	141 nM
Cc1ccc(C(=O)N(CCCN)C(c2nc3snc(C)c3c(=O)n2Cc2ccc(F)cc2)C(C)C)cc1 (stereo not given)	19 nM	–
CCC(c1nc2ccsc2c(=O)n1Cc1cscn1)N(CCCN)C(=O)c1ccc(C)cc1 (stereo not given)	–	9090 nM
CCC(c1nc2ccsc2c(=O)[nH]1)N(CCCN)C(=O)c1ccc(C)cc1 (stereo not given)	–	9000 nM
Cc1ccc(C(=O)N(CCCN)C(c2nc3snc(C)c3c(=O)n2Cc2ccccc2)C(C)C)cc1 (single isomer, unassigned; (-)) [AZD-4877]	–	429 nM
CCC(c1nc2ccsc2c(=O)n1Cc1ccccc1)N(CCCN)C(=O)c1cc2ccccc2s1 (stereo not given)	–	40 nM
CCC(c1nc2ccsc2c(=O)n1Cc1ccccc1)N(CCCN)C(=O)c1ccc(C#N)cc1 (stereo not given)	–	2700 nM
